Data set [1] relates to A. baumannii 4106 (AB4106). Briefly: Broth microdilution, colistin potentiation. Format: cell-based. In outline:
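AB4106 (1.04×10^6 CFU/mL) and KPB9 (1.96×10^6 CFU/mL) cultured 4–6 h, diluted in CAMHB, pre-dosed with compound, then colistin serially 2-fold diluted; compound-free and compound-alone controls included. Incubated stationary at 37° C. MIC = lowest colistin concentration giving 90% growth inhibition versus untreated wells.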

The subject of data set [2] is AB 4106. Briefly: Broth microdilution, standalone MIC of compound. Format: cell-based, A. baumannii. The conditions noted are these: Acinetobacter baumannii, 16 h, read-out: MIC of compound alone, AB 4106. In outline: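 Bacteria grown 4–6 h in CAMHB, subcultured to 1.04×10^6 CFU/mL, then exposed to twofold serial dilutions of compound in CAMHB and incubated stationary at 37 C. MIC taken as lowest concentration giving 90% growth inhibition versus untreated wells.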

Data set [3] deals with 4T1 cells. The experiment in a line: Cell line toxicity (MTT). As to conditions: mouse, 18 h. It counts as cell-based. On the procedure: Cell line Toxicity: 4T1 cells (ATCC Manassas, Va.) were plated at a density of 1×10^4 cells/well in 96-well plates in Roswell Park Memorial Institute Media 1640 (RPMI)
(Gibco, Gaithersburg, MD) supplemented with 10% Fetal Bovine Serum (Gibco), 2 mM GlutaMAX (Gibco) and 50 μM 2-mercaptoethanol (Sigma Aldrich, St. Louis, Mo.) and incubated at 37 C under a 5% CO2 atmosphere in the dark for 18 h. Cell cultures were treated with serial dilutions of compounds in the presence or absence of 1 μg/mL colistin (3 replicates per condition) and incubated for an additional 18 hours. The following control conditions were used: media only (blank), 1% Triton X100 (0% cell viability), 0.5% DMSO (100% cell viability). Each condition was then treated with 10% volume of a 5 mg/mL solution of 3-(4,5-dimethylthiazol-2-yl)-2,5-diphenyltetrazolium bromide (MTT) (Sigma Aldrich) in sterile filtered 1X phosphate buffered saline (PBS) and incubated for 2 h. at 37 C in 5% CO2, after which the media was aspirated and the resulting formazan crystals were resuspended in 100 μL acidified (4 mM HCl) isopropanol. The 96-well plate was then read at 540 nm on a FLUOstar Optima (BMG Labtech Cary, NC) microplate reader. Cell viability was calculated as a percentage using the two previously mentioned controls.

The test system of data set [4] is AB 4106. Briefly: Time-kill curves with colistin. It counts as cell-based, A. baumannii. The conditions noted are these: 5 μM compound + 0.5, 4 or 32 μg/mL colistin, FIG. 1. The procedure:
(§1) Time—kill Curves: Strains were cultured overnight in CAMHB and subcultured to 1.04×10^6 CFU/mL for AB 4106 and 1.96×10^6 CFU/mL for KP B9 in fresh CAMHB. The subculture was then transferred to culture tubes in 3 mL aliquots, which were dosed with adjuvant, colistin, or adjuvant plus colistin. One aliquot was not dosed to serve as a control. All samples were then incubated at 37 C with shaking. At 2, 4, 6, 8, and 24-hour time points, 100 μL was taken from each sample and ten-fold diluted in CAMHB up to 7 times. 100 μL of diluted culture was plated on LB (Lennox) agar and incubated at 37 C overnight. The total number of bacterial colonies on each plate was determined using a SphereFlash colony counter (NEUTEC Group Inc.).

Data set [5] concerns KP B9. Briefly: Time-kill curves with colistin. Format: cell-based, K. pneumoniae. The conditions noted are these: 5 μM compound + 0.5, 4 or 32 μg/mL colistin, FIG. 2. The procedure: as §1
The subject of data set [6] is K. pneumoniae B9 (KPB9). Briefly: Broth microdilution, colistin potentiation. The conditions noted are these: compound at 500 nM. Format: cell-based. On the procedure: Broth microdilution method for measurement of colistin potentiation: Bacteria were cultured for 4 to 6 hours in CAMHB and diluted to 1.04×10^6 CFU/mL for AB 4106 and 1.96×10^6 CFU/mL for KP B9 in fresh CAMHB. To aliquots (4 mL) was added compound from stock solutions in DMSO. One aliquot was not dosed to allow measurement of the colistin MIC in the absence of compound. A 1 mL aliquot of each sample was dosed with colistin, and from this 200 μL was dispensed into the first row of a 96-well microtiter plate in which all but the final row of subsequent wells was prefilled with 100 μL of the corresponding compound dosed bacterial suspension The final row was filled with media to act as a sterility control and blank. Row one wells were mixed 6-7 times, then, 100 μL was withdrawn and transferred to row two. Row two wells were mixed 6-7 times followed by a 100 μL transfer from row two to row three. This procedure was used to serially dilute the rest of the rows of the microtiter plate, excluding the last prefilled row, which was used to measure growth in the presence of compound alone. Plates were then sealed with GLAD
Press'n Seal and incubated under stationary conditions at 37° C. […] MIC values were determined as the minimum concentration required to achieve 90% growth inhibition compared to growth in untreated wells.
For orientation: In broth dilution the organism is exposed to a series of concentrations in liquid medium.

For data set [7], the system named is AB 3941. The experiment in a line: Colistin potentiation, colistin-resistant isolate panel. Format: cell-based, A. baumannii. The conditions noted are these: compound at 5 μM.
Data set [8] deals with AB 3942. The data set is described as above. Format: cell-based, A. baumannii. As to conditions: compound at 5 μM.
The subject of data set [9] is AB 4112. The data set is described as above. The conditions noted are these: compound at 5 μM. Format: cell-based, A. baumannii.
The subject of data set [10] is AB 4119. The description is as above. It counts as cell-based, A. baumannii. The conditions noted are these: compound at 5 μM.
The test system of data set [11] is AB 17978 mcr-1. The description is as above. As to conditions: compound at 5 μM. Format: cell-based, A. baumannii.
The subject of data set [12] is A. baumannii, K. pneumoniae, and Escherichia coli. The experiment in a line: Earlier finding: suppression of colistin resistance by IMD-0354. As to conditions: 5 μM (1.9 μg/mL) IMD-0354. Format: cell-based.
Setting [13] is: compound at 5 μM, colistin alone 2048 μg/mL.

Each structure is given as a SMILES string. Read-outs that look alike come from different tables or passages of the source.

A word on the MIC: it is the least concentration at which growth counts as inhibited. With `O=C(Nc1cc(Cl)cc(Cl)c1)c1cc(Cl)ccc1O` [Compound 22], the “Colistin MIC fold reduction, AB 4106” value in data set [1] (compound at 1 μM) amounted to 512 fold; in [1] (compound at 3 μM), 1024 fold; in data set [1] (setting [13]), 1024 fold. Also, the MIC in data set [2] (standalone, no colistin) is more than 200 µM. Also, the “no measurable toxicity up to” value in data set [3] is more than 200 µM. Moreover, the “Time-kill: potentiation of colistin activity” value in [4] and in data set [5] was “significant potentiation of colistin activity” in each case.
As to `O=C(Nc1cc(Br)cc(Br)c1)c1cc(Cl)ccc1O` [Compound 23], the “Colistin MIC fold reduction, AB 4106” value in data set [1] (compound at 1 μM) is recorded as 256 fold; in data set [1] (compound at 3 μM), 1024 fold; in data set [1] (setting [13]) it was 1024 fold. In addition, in data set [6], the “ability to break colistin resistance, KPB9” value is on record as “retained the ability to break colistin resistance”. In addition, the MIC in data set [2] (standalone, no colistin) is more than 200 µM. The “Colistin MIC fold reduction, AB 3941” value in data set [7] is listed as “(512) fold”. For the same molecule, the “Colistin MIC fold reduction, AB 3942” value in data set [8] was “(≥2048) fold”. Moreover, the “Colistin MIC fold reduction, AB 4112” value in [9] was “(1024) fold”. Moreover, the “Colistin MIC fold reduction, AB 4119” value in data set [10] is recorded as “(1024) fold”. For the same molecule, the “Colistin MIC fold reduction, AB 17978 mcr-1” value in data set [11] was “(128) fold”. The “no measurable toxicity up to” value in data set [3] was more than 200 µM.
For `O=C(Nc1cc(C(F)(F)F)cc(C(F)(F)F)c1)c1cc(Cl)ccc1O` [IMD-0354, reference compound], the “Colistin MIC fold reduction, AB 4106” value in [1] (compound at 1 μM) came to 256 fold; in data set [1] (compound at 3 μM) it was 512 fold; in data set [1] (setting [13]), 1024 fold. Moreover, in data set [2], the MIC came to 50 µM. Besides, the “Colistin MIC fold reduction, AB 3941” value in data set [7] is on record as “(512) fold”. Moreover, the “Colistin MIC fold reduction, AB 3942” value in data set [8] was “(≥2048) fold”. In addition, the “Colistin MIC fold reduction, AB 4112” value in data set [9] is “(1024) fold”. For the same molecule, in [10], the “Colistin MIC fold reduction, AB 4119” value is “(256) fold”. Further, the “Colistin MIC fold reduction, AB 17978 mcr-1” value in [11] is recorded as “(128) fold”. The “reduction of the MIC of colistin” value in data set [12] is given as not below 4096 fold.
